Measured values from patent US4918064A, “Phenyl glycines for use in reducing neurotoxic injury” (G. D. Searle & Co., priority 1987, dated 1990).

System: chick embryo retina
Experiment: In Vitro Chick Retina Assay (excitotoxic lesions by NMDA or KA)
Type: cell-based
Conditions: vs. NMDA 200 μM, 30 min at 37° C.
Source text: [Olney, J. W., Price, M. T., Fuller, T. A., Labruyere, J., Samson, L., Carpenter, M., Mahan, K., "The Anti-Excitotoxic Effects of Certain Anesthetics, Analgesics and Sedative-Hypnotics", Neuroscience Letters, 68, 29-34, (1986)].
Using an approach similar to that earlier described [Reif-Lehrer, L., Bergenthal, J. and Hanninen, L., "Effects of Monosodium Glutamate on Chick Embryo Retina in Culture", Invest. Ophthalmol., 14, 114-12, (1975)], 15-day-old chick embryos were decapitated and their eyes removed and cut into quadrants after excising the cornea and removing the lens, vitreous and iris. The retinal quadrants were then gently separated from the pigment epithelium and incubated for 30 minutes at 37° C. in a standard balanced salt solution (BSS) to which test compounds, either excitatory amino acid agonists or potential antagonists or both, were added in various concentrations. As described elsewhere [Olney, J. W., Price, M. T., Samson, L. and Labruyere, J., "The Role of Specific Ions in Glutamate Neurotoxicity". Neurosci. […]

## NC(C(=O)O)c1ccc(CP(=O)(O)O)cc1 (stereo not shown) [Example VI, 4-(Phosphonomethyl)phenylglycine]
  concentration for full antagonism against NMDA (complete prevention of toxic activity): 50 µM
